The source of these data is patent US20240124427A1, “HYDROXYHETEROCYCLOALKANE-CARBAMOYL DERIVATIVES” (Idorsia Pharmaceuticals Ltd, priority 2021, published 2024).

What is called IC50 is the concentration that gives 50% inhibition.

The target in this test is human Gal-3 (hGal-3) (Homo sapiens (Human), UniProt P17931). The experiment in a line: Competitive binding assay: biotinylated hGal-3 binding to microplate-adsorbed asialofetuin (ASF). As to conditions: Activity on hGal-3; mean values of several measurements; mixture of diastereomers measured where not separated. The method, boiled down:
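Biotinylated human Gal-3 binding to plate-adsorbed asialofetuin, competed by compound, 3 h at 4 °C. Bound protein detected with streptavidin-peroxidase (1 h, 4 °C) and ABTS substrate. IC50 reported as mean of several measurements.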

Chain of human Gal-3 (hGal-3) (P17931 whole entry): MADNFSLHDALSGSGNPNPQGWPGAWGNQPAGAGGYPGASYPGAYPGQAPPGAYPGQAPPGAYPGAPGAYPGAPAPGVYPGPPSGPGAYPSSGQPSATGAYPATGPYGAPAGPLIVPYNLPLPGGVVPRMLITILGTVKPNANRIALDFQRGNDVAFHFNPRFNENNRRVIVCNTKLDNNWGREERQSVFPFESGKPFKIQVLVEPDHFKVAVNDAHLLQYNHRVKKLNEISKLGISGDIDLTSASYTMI

As to `CO[C@@H]1[C@@H](n2cc(-c3cc(F)c(F)c(F)c3)nn2)[C@@H](O)[C@@H](CO)O[C@H]1C(=O)N(c1cc(Cl)cc(Cl)c1)[C@@H]1CN(C(C)=O)C[C@H]1O` [Example 77, (2R,3R,4S,5R,6R)-N-((3R,4R)-1-acetyl-4-hydroxypyrrolidin-3-yl)-N-(3,5-dichlorophenyl)-5-hydroxy-6-(hydroxymethyl)-3-methoxy-4-(4-(3,4,5-trifluorophenyl)-1H-1,2,3-triazol-1-yl)tetrahydro-2H-pyran-2-carboxamide], the IC50 came to 80 nM. Consider `CO[C@@H]1[C@@H](n2cc(-c3cc(F)c(F)c(F)c3)nn2)[C@@H](O)[C@@H](CO)O[C@H]1C(=O)N(c1cc(Br)cc(C#N)c1)[C@@H]1CN(C(C)=O)C[C@H]1O` [Example 78, (2R,3R,4S,5R,6R)-N-((3R,4R)-1-acetyl-4-hydroxypyrrolidin-3-yl)-N-(3-bromo-5-cyanophenyl)-5-hydroxy-6-(hydroxymethyl)-3-methoxy-4-(4-(3,4,5-trifluorophenyl)-1H-1,2,3-triazol-1-yl)tetrahydro-2H-pyran-2-carboxamide], for which the IC50 is 71 nM.

For the compound `CO[C@@H]1[C@@H](n2cc(-c3cc(F)c(F)c(F)c3)nn2)[C@@H](O)[C@@H](CO)O[C@H]1C(=O)N(c1cc(C)cc(Br)c1)[C@@H]1CN(C(C)=O)C[C@H]1O` [Example 79, (2R,3R,4S,5R,6R)-N-((3R,4R)-1-acetyl-4-hydroxypyrrolidin-3-yl)-N-(3-bromo-5-methylphenyl)-5-hydroxy-6-(hydroxymethyl)-3-methoxy-4-(4-(3,4,5-trifluorophenyl)-1H-1,2,3-triazol-1-yl)tetrahydro-2H-pyran-2-carboxamide], the IC50 is 76 nM. The figure for `CO[C@@H]1[C@@H](n2cc(-c3ccc(Br)c(F)c3F)nn2)[C@@H](O)[C@@H](CO)O[C@H]1C(=O)N(c1cc(Cl)cc(Cl)c1)[C@@H]1CN(C(C)=O)C[C@H]1O` [Example 80, (2R,3R,4S,5R,6R)-N-((3R,4R)-1-acetyl-4-hydroxypyrrolidin-3-yl)-4-(4-(4-bromo-2,3-difluorophenyl)-1H-1,2,3-triazol-1-yl)-N-(3,5-dichlorophenyl)-5-hydroxy-6-(hydroxymethyl)-3-methoxytetrahydro-2H-pyran-2-carboxamide] is 31 nM; for `CO[C@@H]1[C@@H](n2cc(-c3cc(F)c(C)c(F)c3)nn2)[C@@H](O)[C@@H](CO)O[C@H]1C(=O)N(c1cc(Br)cc(Br)c1)[C@@H]1CN(C(C)=O)C[C@H]1O` [Example 81, (2R,3R,4S,5R,6R)-N-((3R,4R)-1-acetyl-4-hydroxypyrrolidin-3-yl)-N-(3,5-dibromophenyl)-4-(4-(3,5-difluoro-4-methylphenyl)-1H-1,2,3-triazol-1-yl)-5-hydroxy-6-(hydroxymethyl)-3-methoxytetrahydro-2H-pyran-2-carboxamide] it is 40 nM; for `CO[C@@H]1[C@@H](n2cc(-c3cc(F)c(C)c(F)c3)nn2)[C@@H](O)[C@@H](CO)O[C@H]1C(=O)N(c1cc(C)cc(Br)c1)[C@@H]1CN(C(C)=O)C[C@H]1O` [Example 82, (2R,3R,4S,5R,6R)-N-((3R,4R)-1-acetyl-4-hydroxypyrrolidin-3-yl)-N-(3-bromo-5-methylphenyl)-4-(4-(3,5-difluoro-4-methylphenyl)-1H-1,2,3-triazol-1-yl)-5-hydroxy-6-(hydroxymethyl)-3-methoxytetrahydro-2H-pyran-2-carboxamide] it is 45 nM. The figure for `CO[C@@H]1[C@@H](n2cc(-c3cc(F)c(Cl)c(F)c3)nn2)[C@@H](O)[C@@H](CO)O[C@H]1C(=O)N(c1cc(C)cc(Br)c1)[C@@H]1CN(C(C)=O)C[C@H]1O` [Example 83, (2R,3R,4S,5R,6R)-N-((3R,4R)-1-acetyl-4-hydroxypyrrolidin-3-yl)-N-(3-bromo-5-methylphenyl)-4-(4-(4-chloro-3,5-difluorophenyl)-1H-1,2,3-triazol-1-yl)-5-hydroxy-6-(hydroxymethyl)-3-methoxytetrahydro-2H-pyran-2-carboxamide] is 67 nM; for `CO[C@@H]1[C@@H](n2cc(-c3cc(F)c(F)c(F)c3)nn2)[C@@H](O)[C@@H](CO)O[C@H]1C(=O)N(c1cc(Br)cc(C#N)c1)[C@H]1CN(C=O)C[C@@H]1O` [Example 89, (2R,3R,4S,5R,6R)-N-(3-bromo-5-cyanophenyl)-N-((3S,4S)-1-formyl-4-hydroxypyrrolidin-3-yl)-5-hydroxy-6-(hydroxymethyl)-3-methoxy-4-(4-(3,4,5-trifluorophenyl)-1H-1,2,3-triazol-1-yl)tetrahydro-2H-pyran-2-carboxamide] it is 38 nM; for `CO[C@@H]1[C@@H](n2cc(-c3cc(F)c(F)c(F)c3)nn2)[C@@H](O)[C@@H](CO)O[C@H]1C(=O)N(c1cc(C)cc(Br)c1)[C@H]1CN(C=O)C[C@@H]1O` [Example 90, (2R,3R,4S,5R,6R)-N-(3-bromo-5-methylphenyl)-N-((3S,4S)-1-formyl-4-hydroxypyrrolidin-3-yl)-5-hydroxy-6-(hydroxymethyl)-3-methoxy-4-(4-(3,4,5-trifluorophenyl)-1H-1,2,3-triazol-1-yl)tetrahydro-2H-pyran-2-carboxamide] it is 20 nM. Take `CO[C@@H]1[C@@H](n2cc(-c3ccc(Br)c(F)c3F)nn2)[C@@H](O)[C@@H](CO)O[C@H]1C(=O)N(c1cc(Cl)cc(Cl)c1)[C@H]1CN(C=O)C[C@@H]1O` [Example 91, (2R,3R,4S,5R,6R)-4-(4-(4-bromo-2,3-difluorophenyl)-1H-1,2,3-triazol-1-yl)-N-(3,5-dichlorophenyl)-N-((3S,4S)-1-formyl-4-hydroxypyrrolidin-3-yl)-5-hydroxy-6-(hydroxymethyl)-3-methoxytetrahydro-2H-pyran-2-carboxamide]: the IC50 is 20 nM.

In the case of `CO[C@@H]1[C@@H](n2cc(-c3ccc(C)c(F)c3F)nn2)[C@@H](O)[C@@H](CO)O[C@H]1C(=O)N(c1cc(C)cc(Br)c1)[C@H]1CN(C=O)C[C@@H]1O` [Example 92, (2R,3R,4S,5R,6R)-N-(3-bromo-5-methylphenyl)-4-(4-(2,3-difluoro-4-methylphenyl)-1H-1,2,3-triazol-1-yl)-N-((3S,4S)-1-formyl-4-hydroxypyrrolidin-3-yl)-5-hydroxy-6-(hydroxymethyl)-3-methoxytetrahydro-2H-pyran-2-carboxamide], the IC50 came out at 19 nM.

Take `CO[C@@H]1[C@@H](n2cc(-c3cc(F)c(F)c(F)c3)nn2)[C@@H](O)[C@@H](CO)O[C@H]1C(=O)N(c1cc(Br)cc(C#N)c1)[C@@H]1CN(C=O)C[C@H]1O` [Example 93, (2R,3R,4S,5R,6R)-N-(3-bromo-5-cyanophenyl)-N-((3R,4R)-1-formyl-4-hydroxypyrrolidin-3-yl)-5-hydroxy-6-(hydroxymethyl)-3-methoxy-4-(4-(3,4,5-trifluorophenyl)-1H-1,2,3-triazol-1-yl)tetrahydro-2H-pyran-2-carboxamide]: the IC50 worked out at 80 nM. `CO[C@@H]1[C@@H](n2cc(-c3cc(F)c(F)c(F)c3)nn2)[C@@H](O)[C@@H](CO)O[C@H]1C(=O)N(c1cc(C)cc(Br)c1)[C@@H]1CN(C=O)C[C@H]1O` [Example 94, (2R,3R,4S,5R,6R)-N-(3-bromo-5-methylphenyl)-N-((3R,4R)-1-formyl-4-hydroxypyrrolidin-3-yl)-5-hydroxy-6-(hydroxymethyl)-3-methoxy-4-(4-(3,4,5-trifluorophenyl)-1H-1,2,3-triazol-1-yl)tetrahydro-2H-pyran-2-carboxamide]: the IC50 worked out at 86 nM. As to `CO[C@@H]1[C@@H](n2cc(-c3ccc(C)c(F)c3F)nn2)[C@@H](O)[C@@H](CO)O[C@H]1C(=O)N(c1cc(C)cc(Br)c1)[C@@H]1CN(C=O)C[C@H]1O` [Example 95, (2R,3R,4S,5R,6R)-N-(3-bromo-5-methylphenyl)-4-(4-(2,3-difluoro-4-methylphenyl)-1H-1,2,3-triazol-1-yl)-N-((3R,4R)-1-formyl-4-hydroxypyrrolidin-3-yl)-5-hydroxy-6-(hydroxymethyl)-3-methoxytetrahydro-2H-pyran-2-carboxamide], the 50% inhibitory concentration (IC50) was determined as 40 nM.

Regarding `CO[C@@H]1[C@@H](n2cc(-c3cc(F)c(F)c(F)c3)nn2)[C@@H](O)[C@@H](CO)O[C@H]1C(=O)N(c1cc(C)cc(Br)c1)[C@H]1CN(C)C[C@@H]1O` [Example 96, (2R,3R,4S,5R,6R)-N-(3-bromo-5-methylphenyl)-5-hydroxy-N-((3S,4S)-4-hydroxy-1-methylpyrrolidin-3-yl)-6-(hydroxymethyl)-3-methoxy-4-(4-(3,4,5-trifluorophenyl)-1H-1,2,3-triazol-1-yl)tetrahydro-2H-pyran-2-carboxamide], the IC50 turned out to be 51 nM.

Take `CCN1C[C@H](O)[C@@H](N(C(=O)[C@@H]2O[C@H](CO)[C@H](O)[C@H](n3cc(-c4cc(F)c(F)c(F)c4)nn3)[C@H]2OC)c2cc(C)cc(Br)c2)C1` [Example 97, (2R,3R,4S,5R,6R)-N-(3-bromo-5-methylphenyl)-N-((3S,4S)-1-ethyl-4-hydroxypyrrolidin-3-yl)-5-hydroxy-6-(hydroxymethyl)-3-methoxy-4-(4-(3,4,5-trifluorophenyl)-1H-1,2,3-triazol-1-yl)tetrahydro-2H-pyran-2-carboxamide]: the IC50 was determined as 24 nM. As to `CO[C@@H]1[C@@H](n2cc(-c3cc(F)c(F)c(F)c3)nn2)[C@@H](O)[C@@H](CO)O[C@H]1C(=O)N(c1cc(C)cc(Br)c1)[C@H]1CN(S(C)(=O)=O)C[C@@H]1O` [Example 98, (2R,3R,4S,5R,6R)-N-(3-bromo-5-methylphenyl)-5-hydroxy-N-((3S,4S)-4-hydroxy-1-(methylsulfonyl)pyrrolidin-3-yl)-6-(hydroxymethyl)-3-methoxy-4-(4-(3,4,5-trifluorophenyl)-1H-1,2,3-triazol-1-yl)tetrahydro-2H-pyran-2-carboxamide], the IC50 was determined as 29 nM. The figure for `CO[C@@H]1[C@@H](n2cc(-c3cc(F)c(F)c(F)c3)nn2)[C@@H](O)[C@@H](CO)O[C@H]1C(=O)N(c1cc(Cl)cc(Cl)c1)[C@H]1CCOC[C@@H]1O` [Example 99, (2R,3R,4S,5R,6R)-N-(3,5-dichlorophenyl)-5-hydroxy-6-(hydroxymethyl)-N-((3R,4S)-3-hydroxytetrahydro-2H-pyran-4-yl)-3-methoxy-4-(4-(3,4,5-trifluorophenyl)-1H-1,2,3-triazol-1-yl)tetrahydro-2H-pyran-2-carboxamide] is 16 nM.
